“Also recorded” adds a separate entry of the source. Read-outs that look alike come from different tables or passages of the source.
Legend:
[1] = test system: vehicle-induced emetic response; experiment: PEG-200 vehicle-induced emetic response in the ferret; assay type: in vivo; details: 10 mg/kg; PEG-200 1 mL/kg i.p.
[2] = test system: copper sulphate-induced emesis; experiment: Copper sulphate-induced emesis in the ferret; details: Mustela putorius, 2 h, read-out: MED, copper sulphate-induced emesis
[3] = Side effect liability: sedation or ataxia in the mouse; assay type: in vivo; details: up to 100 mg/kg s.c.
[4] = Pharmacokinetics and oral bioavailability in the rat; assay type: in vivo; details: plasma; for Cmax: fasted male Wistar rats; for AUC(0-inf): read-out: AUC zero to infinite time; for half-life: read-out: t1/2 terminal elimination half-life (converted); for clearance: read-out: Cl total systemic clearance; for Vd: read-out: Vd steady-state volume of distribution
Description: 0.5% methyl cellulose, and nanosystem vehicle, The drug was administered either PO by gavage or IV via jugular vein. Blood samples were drawn from jugular vein cannulac into syringes containing heparin before dosing and at different times up to 24 hours postdose. Plasma was harvested by centrifugation and stored at -20° C. until analysis. Plasma samples were analyzed for The Compound using a validated liquid chromatographic method.

cisplatin-induced emesis [5] = details: cisplatin 5 mg/kg i.p.; The Compound 10 mg/kg or ondansetron 1 mg/kg i.p. three times a day
NK1 recognition sites = NK1 recognition sites (Mustela putorius, UniProt M3YAE5); experiment: NK1 binding, ferret
cisplatin-induced emesis [6] = experiment: Cisplatin-induced acute emesis in the ferret; assay type: in vivo
Text: Adult male albino Fitch ferrets (>1 kg weight) were individually housed with free access to food (SDS Diet "C", Special Diet Services Ltd, Essex, U.K.). Thirty minutes prior to the commencement of the studies, the ferrets were presented with 100 g of commercially available tinned cat food.

[7] = test system: apomorphine-induced emesis; experiment: Apomorphine-induced emesis in the ferret; details: Mustela putorius, 1 h, read-out: MED, apomorphine-induced emesis
[8] = Brain penetration in the rat using HPLC assay; assay type: in vivo;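 on % Dose in Brain: IV 4.5 mg/kg via tail vein or PO 21.4 mg/kg by gavage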;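 on amount in brain: IV 4.5 mg/kg via tail vein or PO 21.4 mg/kg by gavage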
Description: Three rats were used for each time point. Prior to blood and brain sampling, rats were anesthetized with ether. Blood samples were collected by cardiac puncture. After transcardiac perfusion with normal saline, whole brains were collected. Plasma and brain samples were analyzed using liquid chromatographic florescence detection methods. […] Total amount in brain at these times was respectively 2.5 and 0.04 μg (Tables 2 and 13). Brain to plasma concentration ratio after IV administration was highest (1.8) at 15 minutes and then decreased to a steady value approximately 0.5 at later postdose times (Table 2).

Chain of NK1 recognition sites (M3YAE5 1-407): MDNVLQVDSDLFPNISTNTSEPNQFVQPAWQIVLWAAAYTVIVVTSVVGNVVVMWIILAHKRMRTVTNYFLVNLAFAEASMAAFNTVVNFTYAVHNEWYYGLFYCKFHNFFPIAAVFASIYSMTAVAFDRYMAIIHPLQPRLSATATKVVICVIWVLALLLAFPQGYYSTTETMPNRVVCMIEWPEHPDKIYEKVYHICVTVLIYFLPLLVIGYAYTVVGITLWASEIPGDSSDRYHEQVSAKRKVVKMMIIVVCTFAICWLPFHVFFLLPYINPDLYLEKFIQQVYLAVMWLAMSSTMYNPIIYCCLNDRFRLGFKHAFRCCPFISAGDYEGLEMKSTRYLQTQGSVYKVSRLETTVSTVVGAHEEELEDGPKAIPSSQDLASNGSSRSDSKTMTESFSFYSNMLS

## C[C@H](NC(=O)[C@@](C)(Cc1c[nH]c2ccccc12)NC(=O)OCc1cc2ccccc2o1)c1ccccc1 [The Compound, [R,S]-[2-(1H-Indol-3-yl)-1-methyl-1-(1-phenyl-ethylcarbamoyl)-ethyl]-carbamic acid benzofuran-2-ylmethyl ester]
[1]
  antagonism of vehicle-induced emetic response: completely antagonized
[2]
  minimal effective dose: 30 mg/kg
[3]
  ataxia: failed to induce
  sedation: failed to induce
[4]; MC suspension PO 3.7 mg/kg
  Tmax: 3.5 h
  Cmax: 15.1 ng/mL
  AUC(0-inf): 107 ng·h/mL
  half-life: 2.8 h
[4]; MC suspension PO 3.7 mg/kg, read-out: % F absolute oral bioavailability
  bioavailability: 4.1%
[4]; NANOSUSPENSION IV 4.6 mg/kg
  AUC(0-inf): 2790 ng·h/mL
  clearance: 27.8 mL/min/kg
  Vd: 3.7 L/kg
  half-life: 4.8 h
[4]; NANOSUSPENSION PO 18.4 mg/kg
  Tmax: 2.3 h
  Cmax: 643 ng/mL
  AUC(0-inf): 5220 ng·h/mL
  half-life: 2.5 h
[4]; NANOSUSPENSION PO 18.4 mg/kg, read-out: % F absolute oral bioavailability
  bioavailability: 47%
[4]; PEG-400 solution IV 5 mg/kg
  AUC(0-inf): 3560 ng·h/mL
  clearance: 23.9 mL/min/kg
  Vd: 3 L/kg
  half-life: 3.5 h
[4]; PEG-400 solution PO 20 mg/kg
  Tmax: 5 h
  Cmax: 774 ng/mL
  AUC(0-inf): 6960 ng·h/mL
  half-life: 3 h
[4]; PEG-400 solution PO 20 mg/kg, read-out: % F absolute oral bioavailability
  bioavailability: 49%
[4]; po, nanosuspension and PEG/EtOH/Water vehicles, read-out: absolute oral bioavailability
  bioavailability: 47 to 49%
cisplatin-induced emesis [5]
  delayed emesis during the 3 days (3-72 hours): completely blocked
  retching and vomiting during the first 3 hours of the emetic response (acute): completely blocked
NK1 recognition sites
  affinity to NK1 recognition sites: nanamolar affinity
cisplatin-induced emesis [6]; 30 mg/kg i.p., cisplatin 10 mg/kg i.p.
  antagonism of the emetic response: complete antagonism; also recorded: completely antagonized
cisplatin-induced emesis [6]; Mustela putorius, i.p. in PEG-200, 3-30 mg/kg, 1 hour before cisplatin 10 mg/kg i.p., 4-hour observation, read-out: minimum effective dose, frequency of vomiting and retching
  minimal effective dose: 3 mg/kg
[7]
  minimal effective dose: 30 mg/kg
[8]; IV 4.5 mg/kg, 15 minutes
  total amount in brain: 2.5 µg
[8]; IV bolus 4.5 mg/kg in PEG-400/EtOH/Water, 0.25 h, 4.5 mg/kg, 15 min
  Brain Conc. (BC): 1448 ± 456 ng/g
[8]; IV bolus 4.5 mg/kg, 0.25 h
  % Dose in Brain: 0.235 ± 0.051%
  Amount in Brain: 2711 ± 668 ng
[8]; IV bolus 4.5 mg/kg, 2 h
  % Dose in Brain: 0.0098%
  Amount in Brain: 114 ± 8.6 ng
[8]; IV bolus 4.5 mg/kg, 4 h
  % Dose in Brain: 0.0033 ± 0.0003%
  Amount in Brain: 40 ± 3.4 ng
[8]; IV bolus 4.5 mg/kg, 8 h
  % Dose in Brain: 0.0078%
  Amount in Brain: 9.6 ng
[8]; PO 21.4 mg/kg, 0.25 h
  % Dose in Brain: 0.00095 ± 0.00053%
  Amount in Brain: 57 ± 31 ng
